The record followed here is EP1501514B1, “PROTEIN KINASE MODULATORS AND METHODS OF USE” (Exelixis, Inc., priority 2002, dated 2003).

Broadly, the IC50 is the concentration that gives 50% inhibition. Low readings indicate higher potency, high ones lower potency.

The target of this assay is T1, Chk1 (Homo sapiens, UniProt O14757).
T1 construct: purchased Upstate Biotechnology
T1 sequence (O14757 1-476): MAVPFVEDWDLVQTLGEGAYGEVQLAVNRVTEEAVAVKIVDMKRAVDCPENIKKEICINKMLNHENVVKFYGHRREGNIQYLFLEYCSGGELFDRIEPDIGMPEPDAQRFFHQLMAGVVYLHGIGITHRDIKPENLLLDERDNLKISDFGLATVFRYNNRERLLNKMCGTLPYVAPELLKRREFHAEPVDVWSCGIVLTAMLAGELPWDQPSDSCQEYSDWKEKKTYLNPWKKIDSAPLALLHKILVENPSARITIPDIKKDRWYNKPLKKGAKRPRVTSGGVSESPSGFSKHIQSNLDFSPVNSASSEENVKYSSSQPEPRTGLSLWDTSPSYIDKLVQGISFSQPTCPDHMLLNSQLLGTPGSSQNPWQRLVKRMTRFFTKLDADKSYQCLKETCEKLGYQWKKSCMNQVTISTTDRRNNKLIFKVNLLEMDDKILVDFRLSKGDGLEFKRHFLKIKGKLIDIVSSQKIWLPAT
The experiment in a line: Chk1 assay: incorporation of γ-33P ATP into immobilized myelin basic protein. The assay is classed as biochemical. The conditions noted are these: Table 11; Chk1 only. The protocol:
Chk1 and Chk2 assays were performed by measuring incorporation of γ-^33P ATP into immobilized myelin basic protein (MBP). High binding white 384 well plates (Greiner) were coated with MBP (Sigma #M-1891) by incubation of 60ul/well of 20µg/ml MBP in Tris-buffered saline (TBS; 50mM Tris pH 8.0, 138mM NaCl, 2.7mM KCl) for 24 hours at 4° C. Plates were washed 3X with 100µl TBS. Kinase reactions were carried out in a total volume of 34µl in kinase buffer (5mM Hepes pH 7.6, 15mM NaCl, 0.01% bovine gamma globulin (Sigma #I-5506), 10mM MgCl2, 1mM DTT, 0.02% TritonX-100). Compound dilutions were performed in DMSO and added to assay wells to a final DMSO concentration of 1%. Each data point was measured in duplicate, and at least two duplicate assays were performed for each individual compound determination. Chkl and Chk2 enzymes (Upstate Biotechnology) were added to final concentrations of 10nM (Chkl) or 20nM (Chk2). A mixture of unlabeled ATP and γ-^33P ATP was added to start the reaction (2x10^6 cpm of γ-^33P ATP per well (3000Ci/mmole) and either 10µM or 30µM unlabeled ATP (for Chkl and Chk2 assays respectively). The reaction was carried out for 1 hour at room temperature with shaking. Plates were washed 7x with TBS, followed by the addition of 50µl/well scintillation fluid (Wallac). Plates were read using a Wallac Trilux counter. This is only one format of such assays, various other formats are possible, as known to those skilled in the art.
The above assay procedure can be used to determine the IC50 for inhibition and/or the inhibition constant Ki. The IC50 is defined as the concentration of compound required to reduce the enzyme activity by 50% under the conditions of the assay. […] The Ki for a compound may be determined from the IC50 based on three assumptions. First, only one compound molecule binds to the enzyme and there is no cooperativity. […] Third, the enzymatic rate of the enzyme-inhibitor complex is zero. The rate (i.e., compound concentration) data are fitted to the equation: V = Vmax E0 [I-((E0+I0+Kd)-sqrt(((E0+I0+Kd))^2 -4E0 I0))/(2E0)] [formula]
Take `Nc1ncc(-c2ccccc2)nc1C(=O)NCCc1ccccc1` [compound 1, 3-amino-6-phenyl-N-(2-phenylethyl)pyrazine-2-carboxamide]: the IC50 is greater than 10 µM.

The compound `Nc1ncc(-c2ccccc2)nc1C(=O)NCc1ccccc1` [compound 2, 3-amino-6-phenyl-N-(phenylmethyl)pyrazine-2-carboxamide] displayed an IC50 greater than 10 µM. Next, `NC(=O)c1nc(-c2cccc(Cl)c2)cnc1N` [compound 3, 3-amino-6-(3-chlorophenyl)pyrazine-2-carboxamide]: greater than 10 µM; `Nc1ncc(-c2ccccc2)nc1C(=O)N[C@@H]1CCc2ccccc21` [compound 4, 3-amino-N-[(1R)-2,3-dihydro-1H-inden-1-yl]-6-phenylpyrazine-2-carboxamide]: greater than 10 µM; `Nc1ncc(-c2ccccc2)nc1C(=O)NC1Cc2ccccc2C1` [compound 6, 3-amino-N-(2,3-dihydro-1H-inden-2-yl)-6-phenylpyrazine-2-carboxamide]: greater than 10 µM. The result for `NC(=O)c1nc(-c2ccccc2Cl)cnc1N` [compound 7, 3-amino-6-(2-chlorophenyl)pyrazine-2-carboxamide] reads greater than 10 µM; that for `Nc1ncc(-c2ccccc2)nc1C(=O)NC1CCCC1` [compound 8, 3-amino-N-cyclopentyl-6-phenylpyrazine-2-carboxamide], greater than 10 µM. In turn, `CN(C)C(=O)c1nc(-c2ccccc2)cnc1N` [compound 9, 3-amino-N,N-dimethyl-6-phenylpyrazine-2-carboxamide] came in with an IC50 of 1 to 10 µM. For the compound `COc1cccc(-c2cnc(N)c(C(N)=O)n2)c1` [compound 10, 3-amino-6-[3-(methyloxy)phenyl]pyrazine-2-carboxamide], the IC50 fell in the range of 1 to 10 µM. The compound `Nc1ncc(-c2ccccc2)nc1C(=O)N1CCCC1` [compound 11, 5-phenyl-3-(pyrrolidin-1-ylcarbonyl)pyrazin-2-amine] displayed an IC50 greater than 10 µM. As to `Nc1ncc(-c2ccccc2)nc1C(=O)NCC1CC1` [compound 12, 3-amino-N-(cyclopropylmethyl)-6-phenylpyrazine-2-carboxamide], the half-maximal inhibitory concentration (IC50) was greater than 10 µM.

For `Nc1ncc(-c2ccccc2)nc1C(=O)NCC1CCCO1` (stereo not drawn) [compound 13, 3-amino-6-phenyl-N-(tetrahydrofuran-2-ylmethyl)pyrazine-2-carboxamide], the IC50 was greater than 10 µM. Next, `CCCNC(=O)c1nc(-c2ccccc2)cnc1NCCC` [compound 15, 6-phenyl-N-propyl-3-(propylamino)pyrazine-2-carboxamide]: greater than 10 µM. The compound `Cc1ccccc1-c1cnc(N)c(C(N)=O)n1` [compound 16, 3-amino-6-(2-methylphenyl)pyrazine-2-carboxamide] registered an IC50 greater than 10 µM. In turn, `Nc1ncc(-c2ccccc2)nc1C(=O)NC1CC1` [compound 20, 3-amino-N-cyclopropyl-6-phenylpyrazine-2-carboxamide] registered an IC50 greater than 10 µM. As to `NC(=O)c1nc(-c2ccc(F)c(F)c2)cnc1N` [compound 21, 3-amino-6-(3,4-difluorophenyl)pyrazine-2-carboxamide], the IC50 is greater than 10 µM. `CNC(=O)c1nc(-c2ccc(F)cc2)cnc1N` [compound 22, 3-amino-6-(4-fluorophenyl)-N-methylpyrazine-2-carboxamide] had an IC50 of 1 to 10 µM.

For `CCOc1ccc(-c2cnc(N)c(C(N)=O)n2)cc1` [compound 23, 3-amino-6-[4-(ethyloxy)phenyl]pyrazine-2-carboxamide], the IC50 was in the range of 1 to 10 µM.

In turn, `CCOc1cccc(-c2cnc(N)c(C(N)=O)n2)c1` [compound 24, 3-amino-6-[3-(ethyloxy)phenyl]pyrazine-2-carboxamide] registered an IC50 of 1 to 10 µM. Next, `NC(=O)c1nc(-c2ccc3c(c2)OCO3)cnc1N` [compound 25, 3-amino-6-(1,3-benzodioxol-5-yl)pyrazine-2-carboxamide]: greater than 10 µM; `NC(=O)c1nc(-c2cccc3ccccc23)cnc1N` [compound 26, 3-amino-6-naphthalen-1-ylpyrazine-2-carboxamide]: greater than 10 µM.
